Values after ≈ are worked out from the molar mass of the structure shown. Positions of bridges follow the written chain, without caps; N, C: chain ends. Non-standard residues stand in square brackets, D forms with d. Residues, ends and D or L forms follow the SMILES beside them. *: point of attachment. Decanoyl(3R-OH) = CCCCCCC[C@@H](O)CC(=O)*; Heptanoyl(6-Me) = CC(C)CCCCC(=O)*; Undecanoyl = CCCCCCCCCCC(=O)*; Lauroyl = CCCCCCCCCCCC(=O)*; dDab = NCC[C@@H](N)C(=O)O; Nle = CCCC[C@H](N)C(=O)O; dDap = NC[C@@H](N)C(=O)O; Dab = NCC[C@H](N)C(=O)O; Nva = CCC[C@H](N)C(=O)O; Abu = CC[C@H](N)C(=O)O
How the values were obtained:
in vitro = conditions: human
Protocol: Cytotoxicity of the synthesised peptides was evaluated by comparison with commercially available colistin (polymyxin E), polymyxin B (Sigma chemical Co., St. Louis, Mo., U.S.A.) and synthetic octapeptin C4 by conducting lactate dehydrogenase (LDH) assay. CC50 values calculated based on curve fitting of dose dependent inhibition of cell growth represented the cytotoxicity of the peptide. Human kidney 2 (HK2) cells were seeded as 2000 cells per well in a 384 well cell culture plate in a final volume of 20 μL in DMEM/F12 medium (Invitrogen #11330057), in which 10% of FBS was added. Cells were incubated for 24 hours at 37° C., 5% CO2 to allow cells to attach to the plates. Similar conditions were employed for HEK293 and HepG2 cytotoxicity assays.
Cytotoxicity to HEK293 and HepG2 cells was determined using the resazurin assay (McMillian, M. K.; Li, L.; Parker, J. B.; Patel, L.; Zhong, Z.; Gunnett, J. W.; Powers, W. J.; Johnson, M. D. An improved resazurin-based cytotoxicity assay for hepatic cells; Cell Biol. Toxicol. 2002, 18, 157-173; O'Brien, J.; Wilson, I.; Orton, T.; Pognan, F. Investigation of the Alamar Blue (resazurin) fluorescent dye for the assessment of mammalian cell cytotoxicity. Eur. J. Biochem. 2000, 267, 5421-5426). In brief, HEK293 and HepG2 cells were seeded at 4000 cells/well in black-wall, clear-bottom 384-well plates (Corning, Australia) and incubated for 24 h at 37° C., 5% CO2. Compounds were then added into each well. After 24 h incubation, 5 μM resazurin was added per well and incubated at 37° C. for 2 h. Fluorescence intensity was then read using a Polarstar Omega with excitation/emission 560/590. The data was then analyzed using GraphPad Prism 6 software. CC50 values were determined using GraphPad Prism 6 software (Inc. La Jolla, Calif.).

P. aeruginosa ATCC 27853 = conditions: ATCC 27853
Summary of the method: (§1)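 Mid-log cultures grown in Mueller Hinton broth at 37° C were tested by 2-fold broth microdilution at 5×10^5 CFU/mL final. Compounds were dissolved in water and tested over a final range of 32 to 0.015 μg/mL.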

[1] = test system: K. pneumoniae GN_102 PmxR; conditions: GN 102 PmxR
Summary of the method: as §1

[2] = test system: P. aeruginosa GN_105, PmxR; conditions: GN 105, PmxR
Summary of the method: as §1

[3] = test system: K. pneumoniae ATCC 700603, MDR; conditions: ATCC 700603
Summary of the method: as §1

K. pneumoniae ATCC 13883 = conditions: ATCC 13883
Summary of the method: as §1

[4] = test system: K. pneumoniae GN_106, PmxR; conditions: GN 106, PmxR
Summary of the method: as §1

E. coli ATCC 25922 = conditions: ATCC 25922
Summary of the method: as §1

[5] = test system: K. pneumoniae ATCC BAA-2146, NDM-1 pos; conditions: ATCC BAA-2146
Summary of the method: as §1

A. baumannii GN_093 PmxR = conditions: GN 093 PmxR
Summary of the method: as §1

A. baumannii ATCC 19606 = conditions: ATCC 19606
Summary of the method: as §1

[6] = test system: P. aeruginosa GN_043, PmxR; conditions: P. aeruginosa GN_043, PmxR
Summary of the method: as §1

Row | Compound | CC50 at 24 h (in vitro) | MIC P. aeruginosa ATCC 27853 (P. aeruginosa ATCC 27853) | MIC K. pneumoniae GN_102 PmxR [1] | MIC P. aeruginosa GN_105, PmxR [2] | MIC K. pneumoniae ATCC 700603, MDR [3] | MIC K. pneumoniae ATCC 13883 (K. pneumoniae ATCC 13883) | MIC K. pneumoniae GN_106, PmxR [4] | MIC E. coli ATCC 25922 (E. coli ATCC 25922) | MIC K. pneumoniae ATCC BAA-2146, NDM-1 pos [5] | MIC A. baumannii GN_093 PmxR (A. baumannii GN_093 PmxR) | MIC A. baumannii ATCC 19606 (A. baumannii ATCC 19606) | MIC P. aeruginosa GN_043, PmxR [6]
1 | CCCCCCCCCCC(=O)N[C@H](CN)C(=O)N[C@H]1CCNC(=O)[C@H](CC(C)C)NC(=O)[C@H](CCN)NC(=O)[C@H](CCN)NC(=O)[C@H](CC(C)C)NC(=O)[C@@H](Cc2ccccc2)NC(=O)[C@H](CCN)NC1=O [compound 9296, nC10CO-D-Dap-cyc[L-Dab-L-Dab-D-Phe-L-Leu-L-Dab-L-Dab-L-Leu]] (Undecanoyl-[dDap][Dab][Dab][dF]L[Dab][Dab]L; lactam 2-C) | 63 µM | 2 µg/mL (≈ 1.94 µM) | 2 µg/mL (≈ 1.94 µM) | 32 µg/mL (≈ 31.1 µM) | 2 µg/mL (≈ 1.94 µM) | 4 µg/mL (≈ 3.89 µM) | 4 µg/mL (≈ 3.89 µM) | 4 µg/mL (≈ 3.89 µM) | 4 µg/mL (≈ 3.89 µM) | 32 µg/mL (≈ 31.1 µM) | 16 µg/mL (≈ 15.6 µM) | 1 µg/mL (≈ 0.972 µM)
2 | CCCCCCC[C@@H](O)CC(=O)N[C@H](CCN)C(=O)N[C@H]1CCNC(=O)[C@H](CC(C)C)NC(=O)[C@H](CCN)NC(=O)[C@H](CCN)NC(=O)[C@H]([C@@H](C)O)NC(=O)[C@@H](Cc2ccccc2)NC(=O)[C@H](CCN)NC1=O [compound 9289, 3(R)OH-nC9CO-D-Dab-cyc[L-Dab-L-Dab-D-Phe-L-Thr-L-Dab-L-Dab-L-Leu]] ({Decanoyl(3R-OH)}-[dDab][Dab][Dab][dF]T[Dab][Dab]L; lactam 2-C) | > 300 µM | 1 µg/mL (≈ 0.969 µM) | >32 µg/mL | >32 µg/mL | 1 µg/mL (≈ 0.969 µM) | 2 µg/mL (≈ 1.94 µM) | >32 µg/mL | 2 µg/mL (≈ 1.94 µM) | 2 µg/mL (≈ 1.94 µM) | >32 µg/mL | 2 µg/mL (≈ 1.94 µM) | >32 µg/mL
3 | CC(C)CCCCC(=O)N[C@H](CCN)C(=O)N[C@H]1CCNC(=O)[C@H](CC(C)C)NC(=O)[C@H](CCN)NC(=O)[C@H](CCN)NC(=O)[C@H](CC(C)C)NC(=O)[C@@H](Cc2ccccc2)NC(=O)[C@H](CCN)NC1=O [compound 9290, 6Me-nC6CO-D-Dab-cyc[L-Dab-L-Dab-D-Phe-L-Leu-L-Dab-L-Dab-L-Leu]] ({Heptanoyl(6-Me)}-[dDab][Dab][Dab][dF]L[Dab][Dab]L; lactam 2-C) | > 300 µM | 2 µg/mL (≈ 2 µM) | 4 µg/mL (≈ 4 µM) | 16 µg/mL (≈ 16 µM) | 4 µg/mL (≈ 4 µM) | 8 µg/mL (≈ 8 µM) | 4 µg/mL (≈ 4 µM) | 8 µg/mL (≈ 8 µM) | 4 µg/mL (≈ 4 µM) | 16 µg/mL (≈ 16 µM) | 16 µg/mL (≈ 16 µM) | 1 µg/mL (≈ 1 µM)
4 | CCCCCCC[C@@H](O)CC(=O)N[C@H](CN)C(=O)N[C@H]1CCNC(=O)[C@H](CC(C)C)NC(=O)[C@H](CCN)NC(=O)[C@H](CCN)NC(=O)[C@H](CCCC)NC(=O)[C@@H](Cc2ccccc2)NC(=O)[C@H](CCN)NC1=O [compound 9294, 3(R)OH-nC9CO-D-Dap-cyc[L-Dab-L-Dab-D-Phe-L-NorLeu-L-Dab-L-Dab-L-Leu]] ({Decanoyl(3R-OH)}-[dDap][Dab][Dab][dF][Nle][Dab][Dab]L; lactam 2-C) | 193 µM | 2 µg/mL (≈ 1.94 µM) | 2 µg/mL (≈ 1.94 µM) | 4 µg/mL (≈ 3.88 µM) | 4 µg/mL (≈ 3.88 µM) | 4 µg/mL (≈ 3.88 µM) | 2 µg/mL (≈ 1.94 µM) | 4 µg/mL (≈ 3.88 µM) | 4 µg/mL (≈ 3.88 µM) | 4 µg/mL (≈ 3.88 µM) | 8 µg/mL (≈ 7.76 µM) | 1 µg/mL (≈ 0.971 µM)
5 | CCCCCCC[C@@H](O)CC(=O)N[C@H](CN)C(=O)N[C@H]1CCNC(=O)[C@H](CC(C)C)NC(=O)[C@H](CCN)NC(=O)[C@H](CCN)NC(=O)[C@H](CC)NC(=O)[C@@H](Cc2ccccc2)NC(=O)[C@H](CCN)NC1=O [compound 9292, 3(R)OH-nC9CO-D-Dap-cyc[L-Dab-L-Dab-D-Phe-L-Abu-L-Dab-L-Dab-L-Leu]] ({Decanoyl(3R-OH)}-[dDap][Dab][Dab][dF][Abu][Dab][Dab]L; lactam 2-C) | > 300 µM | 2 µg/mL (≈ 2 µM) | 2 µg/mL (≈ 2 µM) | 8 µg/mL (≈ 7.98 µM) | 4 µg/mL (≈ 3.99 µM) | 4 µg/mL (≈ 3.99 µM) | 4 µg/mL (≈ 3.99 µM) | 4 µg/mL (≈ 3.99 µM) | 4 µg/mL (≈ 3.99 µM) | 8 µg/mL (≈ 7.98 µM) | 8 µg/mL (≈ 7.98 µM) | 2 µg/mL (≈ 2 µM)
6 | CCCCCCC[C@@H](O)CC(=O)N[C@H](CN)C(=O)N[C@H]1CCNC(=O)[C@H](CC(C)C)NC(=O)[C@H](CCN)NC(=O)[C@H](CCN)NC(=O)[C@H](CCC)NC(=O)[C@@H](Cc2ccccc2)NC(=O)[C@H](CCN)NC1=O [compound 9293, 3(R)OH-nC9CO-D-Dap-cyc[L-Dab-L-Dab-D-Phe-L-NorVal-L-Dab-L-Dab-L-Leu]] ({Decanoyl(3R-OH)}-[dDap][Dab][Dab][dF][Nva][Dab][Dab]L; lactam 2-C) | > 300 µM | 2 µg/mL (≈ 1.97 µM) | 2 µg/mL (≈ 1.97 µM) | 4 µg/mL (≈ 3.94 µM) | 4 µg/mL (≈ 3.94 µM) | 4 µg/mL (≈ 3.94 µM) | 2 µg/mL (≈ 1.97 µM) | 4 µg/mL (≈ 3.94 µM) | 4 µg/mL (≈ 3.94 µM) | 4 µg/mL (≈ 3.94 µM) | 8 µg/mL (≈ 7.87 µM) | 1 µg/mL (≈ 0.984 µM)
7 | CCCCCCCCCCCC(=O)N[C@H](CN)C(=O)N[C@H]1CCNC(=O)[C@H](CC(C)C)NC(=O)[C@H](CCN)NC(=O)[C@H](CCN)NC(=O)[C@H](CC(C)C)NC(=O)[C@@H](Cc2ccccc2)NC(=O)[C@H](CCN)NC1=O [compound 9297, nC11CO-D-Dap-cyc[L-Dab-L-Dab-D-Phe-L-Leu-L-Dab-L-Dab-L-Leu]] (Lauroyl-[dDap][Dab][Dab][dF]L[Dab][Dab]L; lactam 2-C) | 33 µM | 4 µg/mL (≈ 3.84 µM) | 8 µg/mL (≈ 7.67 µM) | 8 µg/mL (≈ 7.67 µM) | 4 µg/mL (≈ 3.84 µM) | 4 µg/mL (≈ 3.84 µM) | 8 µg/mL (≈ 7.67 µM) | 2 µg/mL (≈ 1.92 µM) | 8 µg/mL (≈ 7.67 µM) | 8 µg/mL (≈ 7.67 µM) | 16 µg/mL (≈ 15.3 µM) | 2 µg/mL (≈ 1.92 µM)
8 | CCCCCCC[C@@H](O)CC(=O)N[C@H](CN)C(=O)N[C@H]1CCNC(=O)[C@H](CC(C)C)NC(=O)[C@H](CCN)NC(=O)[C@H](CCN)NC(=O)[C@H](C(C)C)NC(=O)[C@@H](Cc2ccccc2)NC(=O)[C@H](CCN)NC1=O [compound 9291, 3(R)OH-nC9CO-D-Dap-cyc[L-Dab-L-Dab-D-Phe-L-Val-L-Dab-L-Dab-L-Leu]] ({Decanoyl(3R-OH)}-[dDap][Dab][Dab][dF]V[Dab][Dab]L; lactam 2-C) | > 300 µM | 2 µg/mL (≈ 1.97 µM) | 32 µg/mL (≈ 31.5 µM) | 32 µg/mL (≈ 31.5 µM) | 8 µg/mL (≈ 7.87 µM) | 8 µg/mL (≈ 7.87 µM) | 32 µg/mL (≈ 31.5 µM) | 2 µg/mL (≈ 1.97 µM) | 8 µg/mL (≈ 7.87 µM) | 32 µg/mL (≈ 31.5 µM) | >32 µg/mL | 2 µg/mL (≈ 1.97 µM)
